Reference: patent US9676760B2, “Fused heterocyclic compounds as ion channel modulators” (Gilead Sciences, Inc., priority 2011, dated 2017)

What was measured:
Assay type in all cases: cell-based
[1] = biological target: T1, wild-type human cardiac sodium channel, hNav1.5 (Homo sapiens, UniProt Q14524); assay: Late INa screening assay (QPatch whole cell patch clamp, HEK293)
In short: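 HEK293 stably expressing hNav1.5 without beta subunits, recorded at 23-25° C. Late current was induced by 10 μM tefluthrin. Cells were depolarized from −120 mV to −20 mV for 250 ms at 0.1 Hz. Compounds were tested at 1 μM in extracellular solution, with baseline taken in 0Na-ECF; output is percent block of late INa.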

[2] = biological target: T2, hNav 1.1 sodium channel isoform (Homo sapiens, UniProt P35498); assay: hNav1.1 whole-cell voltage-clamp assay; conditions: % Inhibition at 1 uM; use-dependent block, 10 Hz; read-out: NAV1.1* UDB-10HZ
T2 construct: expressed in transfected cells; host or cells: HEK293, transient transfection (Qiagen Superfect)

[3] = biological target: T3, hNav 1.2 sodium channel isoform (Homo sapiens, UniProt Q99250); assay: hNav1.2 whole-cell voltage-clamp assay; conditions: use-dependent block, 10 Hz, read-out: NAV1.2* UDB-10HZ
T3 construct: expressed in transfected cells
T3 sequence (Q99250 whole entry, canonical isoform): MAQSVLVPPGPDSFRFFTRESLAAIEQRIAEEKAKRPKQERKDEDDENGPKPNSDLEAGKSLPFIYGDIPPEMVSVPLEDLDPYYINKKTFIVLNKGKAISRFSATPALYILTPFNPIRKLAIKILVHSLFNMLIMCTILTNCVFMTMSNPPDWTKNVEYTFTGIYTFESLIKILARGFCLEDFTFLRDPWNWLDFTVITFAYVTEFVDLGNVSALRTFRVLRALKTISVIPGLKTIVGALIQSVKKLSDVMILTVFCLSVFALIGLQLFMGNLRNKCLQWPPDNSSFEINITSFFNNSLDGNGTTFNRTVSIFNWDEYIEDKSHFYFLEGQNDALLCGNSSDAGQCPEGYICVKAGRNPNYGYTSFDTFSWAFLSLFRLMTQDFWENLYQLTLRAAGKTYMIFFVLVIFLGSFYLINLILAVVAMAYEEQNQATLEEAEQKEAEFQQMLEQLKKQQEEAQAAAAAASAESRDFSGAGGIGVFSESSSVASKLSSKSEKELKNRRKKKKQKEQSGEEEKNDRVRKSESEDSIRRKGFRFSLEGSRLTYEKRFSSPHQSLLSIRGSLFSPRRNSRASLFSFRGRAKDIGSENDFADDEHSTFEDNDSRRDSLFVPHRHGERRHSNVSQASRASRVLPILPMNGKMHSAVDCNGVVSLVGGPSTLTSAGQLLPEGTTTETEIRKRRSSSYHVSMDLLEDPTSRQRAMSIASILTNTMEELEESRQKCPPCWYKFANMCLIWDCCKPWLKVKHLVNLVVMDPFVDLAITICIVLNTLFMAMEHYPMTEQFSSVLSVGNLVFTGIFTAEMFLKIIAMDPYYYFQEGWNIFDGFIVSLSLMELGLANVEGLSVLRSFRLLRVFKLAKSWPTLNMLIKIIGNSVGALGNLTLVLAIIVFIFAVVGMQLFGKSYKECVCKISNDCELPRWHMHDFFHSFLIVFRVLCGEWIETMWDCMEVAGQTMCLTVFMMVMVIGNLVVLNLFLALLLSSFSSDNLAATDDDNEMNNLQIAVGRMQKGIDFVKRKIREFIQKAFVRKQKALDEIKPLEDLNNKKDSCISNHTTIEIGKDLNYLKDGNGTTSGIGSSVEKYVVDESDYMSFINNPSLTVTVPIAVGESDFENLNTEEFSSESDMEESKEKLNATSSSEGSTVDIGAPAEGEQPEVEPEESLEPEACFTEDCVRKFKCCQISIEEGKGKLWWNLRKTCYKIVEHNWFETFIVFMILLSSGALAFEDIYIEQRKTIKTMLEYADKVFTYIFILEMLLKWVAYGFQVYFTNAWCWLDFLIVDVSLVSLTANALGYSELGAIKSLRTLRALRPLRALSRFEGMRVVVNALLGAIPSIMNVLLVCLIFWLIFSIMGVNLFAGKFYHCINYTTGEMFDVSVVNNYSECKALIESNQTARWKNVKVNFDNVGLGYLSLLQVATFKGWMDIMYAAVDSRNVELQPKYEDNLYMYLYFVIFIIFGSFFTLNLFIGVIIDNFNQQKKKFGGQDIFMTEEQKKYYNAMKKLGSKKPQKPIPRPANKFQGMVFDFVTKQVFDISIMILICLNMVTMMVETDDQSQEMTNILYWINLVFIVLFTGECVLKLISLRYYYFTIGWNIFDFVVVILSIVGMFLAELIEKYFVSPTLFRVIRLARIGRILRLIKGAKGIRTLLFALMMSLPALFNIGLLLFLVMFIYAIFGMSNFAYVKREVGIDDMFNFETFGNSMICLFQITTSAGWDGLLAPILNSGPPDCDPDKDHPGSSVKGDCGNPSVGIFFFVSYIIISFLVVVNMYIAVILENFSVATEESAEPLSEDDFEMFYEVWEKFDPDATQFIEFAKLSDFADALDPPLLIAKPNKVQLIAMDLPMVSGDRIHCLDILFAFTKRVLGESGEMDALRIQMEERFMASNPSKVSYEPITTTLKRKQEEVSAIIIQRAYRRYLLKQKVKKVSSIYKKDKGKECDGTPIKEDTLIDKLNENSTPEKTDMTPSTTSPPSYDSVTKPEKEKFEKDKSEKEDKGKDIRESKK
Experimental: Wild-type (WT) cDNA stably transfected in Chinese hamster ovary (CHO) cells is used to record INa. Unless otherwise noted, all reagents are purchased from Sigma-Aldrich (St Louis, Mo., U.S.A.).
Whole-cell voltage-clamp recordings are used to measure the biophysical properties of WT. […] Cells are allowed to stabilize for 10 min after establishment of the whole-cell configuration before current is measured. Series resistance is compensated 90% to assure that the command potential is reached within microseconds with a voltage error<2 mV. Leak currents are subtracted by using an online P/4 procedure and all currents are low-pass Bessel filtered at 5 kHz and digitized at 50 kHz.
For clarity, representative ramp currents are low pass filtered off-line at 50 Hz. Specific voltage-clamp protocols assessing channel activation, fast inactivation and availability during repetitive stimulation are used. Results are presented as mean±SEM.
Tonic block of peak current is measured using a step to −10 mV (20 ms) from a holding potential of −120 mV (0.2 Hz). Use-dependent block of peak current is measured during pulse number 300 of a pulse train (−10 mV, 5 ms, 300 pulses, 10 Hz or 25 Hz) from a holding potential of −120 mV. Two sequential pulse train stimulations are averaged to obtain mean current traces for each recording condition, which are then used for offline subtraction and analysis.
For use-dependent studies, cells are stimulated with depolarizing pulse trains (−10 mV, 5 ms, 300 pulses, 10 and 25 Hz) from a holding potential of −120 mV. Currents are then normalized to the peak current recorded in response to the first pulse in each frequency train. For tonic block studies, peak current is evaluated in response to a 20 ms depolarization to −10 mV (0.2 Hz). […] Results are presented as mean±SEM.
A stock solution of 10 mM compound of Formula I is prepared in 0.1 M HCl or DMSO. […] The final DMSO concentration was kept at 0.1% in all solutions. Direct application of the perfusion solution to the clamped cell is achieved using the Perfusion Pencil system (Automate, Berkeley, Calif.). Direct cell perfusion is driven by gravity at a flow rate of 350 μL/min using a 250 micron tip. This system sequesters the clamped cell within a perfusion stream and enables complete solution exchange within 1 second. The clamped cell is perfused continuously starting immediately after establishing the whole-cell configuration. Control currents are measured during control solution perfusion.
Solutions are perfused for three minutes prior to current recordings to allow equilibrium (tonic) drug block. Tonic block of peak currents is measured from this steady-state condition. Three sequential current traces are averaged to obtain a mean current for each recording. The mean current traces are utilized for offline analysis. Use-dependent block of peak current is measured during pulse number 300 of the pulse train, (−10 mV, 5 ms, 300 pulses, 10 Hz) from a holding potential of −120 mV.

[4] = biological target: T1, wild-type human cardiac sodium channel, hNav1.5; assay: Peak INa screening assay (tonic and use-dependent block); conditions: compound at 1 μM
Experimental: The late sodium current (Late INa) and peak sodium current (Peak INa) assays are performed on an automated electrophysiology platform, QPatch 16× (Sophion Bioscience, Copenhagen, Denmark), which uses the whole cell patch clamp technique to measure currents through the cell membrane of up to 16 cells at a time. The assay uses an HEK293 (human embryonic kidney) cell line heterologously expressing the wild-type human cardiac sodium channel, hNav1.5, purchased from Millipore (Billerica, Mass.). No beta subunits were coexpressed with the Na channel alpha subunit. Cells are maintained with standard tissue culture procedures and stable channel expression is maintained with 400 μg/mL Geneticin in the culture medium. Cells isolated for use on QPatch are incubated for 5 minutes in Detachin 1×(Genlantis, San Diego, USA) at 37° C. to ensure that 80-90% of the cells are single and not part of a cell cluster. Experiments are carried out at 23-25° C.
For both the Late INa and Peak INa assays, series resistance compensation is set to 100% and series resistance and whole-cell compensation are performed automatically. Currents are digitized at 25 kHz and low-pass filtered at 12 kHz and 10 kHz for the late and peak INa assays, respectively. Currents through open sodium channels are automatically recorded and stored in the Sophion Bioscience Oracle database (Sophion Bioscience, Copenhagen, Denmark). Analysis is performed using QPatch Assay and database software and data are compiled in Excel.
Compound stocks are routinely made by the Gilead Sample Bank in plastic vials to 10 mM in dimethyl sulfoxide (DMSO). In some cases, when compounds are not soluble in DMSO, they are made in 100% ethanol. Stocks are sonicated as necessary. The extracellular solution for screening Late INa is composed of: 140 mM NaCl, 4 mM KCl, 1.8 mM CaCl2, 0.75 mM MgCl2 and 5 mM HEPES with pH adjusted to 7.4 using NaOH. The intracellular solution used to perfuse the inside of the cells for both the Late INa and Peak INa assays contains: 120 mM CsF, 20 mM CsCl, 5 mM EGTA, 5 mM HEPES and pH adjusted to 7.4 with CsOH. Compounds are diluted in extracellular solution to 1 μM in glass vials and then transferred to glass well plates before robotic addition to the cells. The 0 mM Na extracellular solution (0Na-ECF) used at the end of each experiment for the Late INa and Peak INa assays to measure baseline current contains: 140 mM N-methyl-D-glucamine; 4 mM KCl; 1.8 mM CaCl2; 0.75 mM MgCl2; 5 mM HEPES and pH was adjusted to 7.4 with HCl.
Compounds were also evaluated for their effect in several other assays, including their effect on Peak INa. […] Since the peak INa in the cells used herein can be very large, introducing artifacts in the recording, the concentration of Na^+ in the bath can be reduced to 20 mM and a nonpermeant cation added to compensate for the Na^+ that was removed to maintain the osmolarity and ionic strength of the solution (see solution details below).
A low stimulation frequency of 0.1 Hz was used to determine the effect of the test compound when the channel spent most of the time in the resting (closed) state and provides information about Tonic Block (TB). A higher stimulation frequency (3 Hz) was used to measure block of the channel when it spent more time in the activated and inactivated states and provided a measure of Use-Dependent Block (UDB). Use-dependent block refers to the accumulation of block with increased frequency of channel activation.

[5] = HEK293, % Inhibition at 1 uM, read-out: Late INa*
[6] = HEK293, percent block of late INa, compound at 1 μM, 10 μM Tefluthrin, read-out: Late INa 1 μM
[7] = tonic block of peak INa, 0.1 Hz, read-out: Peak TB 1 μM
[8] = use-dependent block of peak INa, 3 Hz, read-out: Peak UDB 1 μM

T1 sequence (Q14524 whole entry): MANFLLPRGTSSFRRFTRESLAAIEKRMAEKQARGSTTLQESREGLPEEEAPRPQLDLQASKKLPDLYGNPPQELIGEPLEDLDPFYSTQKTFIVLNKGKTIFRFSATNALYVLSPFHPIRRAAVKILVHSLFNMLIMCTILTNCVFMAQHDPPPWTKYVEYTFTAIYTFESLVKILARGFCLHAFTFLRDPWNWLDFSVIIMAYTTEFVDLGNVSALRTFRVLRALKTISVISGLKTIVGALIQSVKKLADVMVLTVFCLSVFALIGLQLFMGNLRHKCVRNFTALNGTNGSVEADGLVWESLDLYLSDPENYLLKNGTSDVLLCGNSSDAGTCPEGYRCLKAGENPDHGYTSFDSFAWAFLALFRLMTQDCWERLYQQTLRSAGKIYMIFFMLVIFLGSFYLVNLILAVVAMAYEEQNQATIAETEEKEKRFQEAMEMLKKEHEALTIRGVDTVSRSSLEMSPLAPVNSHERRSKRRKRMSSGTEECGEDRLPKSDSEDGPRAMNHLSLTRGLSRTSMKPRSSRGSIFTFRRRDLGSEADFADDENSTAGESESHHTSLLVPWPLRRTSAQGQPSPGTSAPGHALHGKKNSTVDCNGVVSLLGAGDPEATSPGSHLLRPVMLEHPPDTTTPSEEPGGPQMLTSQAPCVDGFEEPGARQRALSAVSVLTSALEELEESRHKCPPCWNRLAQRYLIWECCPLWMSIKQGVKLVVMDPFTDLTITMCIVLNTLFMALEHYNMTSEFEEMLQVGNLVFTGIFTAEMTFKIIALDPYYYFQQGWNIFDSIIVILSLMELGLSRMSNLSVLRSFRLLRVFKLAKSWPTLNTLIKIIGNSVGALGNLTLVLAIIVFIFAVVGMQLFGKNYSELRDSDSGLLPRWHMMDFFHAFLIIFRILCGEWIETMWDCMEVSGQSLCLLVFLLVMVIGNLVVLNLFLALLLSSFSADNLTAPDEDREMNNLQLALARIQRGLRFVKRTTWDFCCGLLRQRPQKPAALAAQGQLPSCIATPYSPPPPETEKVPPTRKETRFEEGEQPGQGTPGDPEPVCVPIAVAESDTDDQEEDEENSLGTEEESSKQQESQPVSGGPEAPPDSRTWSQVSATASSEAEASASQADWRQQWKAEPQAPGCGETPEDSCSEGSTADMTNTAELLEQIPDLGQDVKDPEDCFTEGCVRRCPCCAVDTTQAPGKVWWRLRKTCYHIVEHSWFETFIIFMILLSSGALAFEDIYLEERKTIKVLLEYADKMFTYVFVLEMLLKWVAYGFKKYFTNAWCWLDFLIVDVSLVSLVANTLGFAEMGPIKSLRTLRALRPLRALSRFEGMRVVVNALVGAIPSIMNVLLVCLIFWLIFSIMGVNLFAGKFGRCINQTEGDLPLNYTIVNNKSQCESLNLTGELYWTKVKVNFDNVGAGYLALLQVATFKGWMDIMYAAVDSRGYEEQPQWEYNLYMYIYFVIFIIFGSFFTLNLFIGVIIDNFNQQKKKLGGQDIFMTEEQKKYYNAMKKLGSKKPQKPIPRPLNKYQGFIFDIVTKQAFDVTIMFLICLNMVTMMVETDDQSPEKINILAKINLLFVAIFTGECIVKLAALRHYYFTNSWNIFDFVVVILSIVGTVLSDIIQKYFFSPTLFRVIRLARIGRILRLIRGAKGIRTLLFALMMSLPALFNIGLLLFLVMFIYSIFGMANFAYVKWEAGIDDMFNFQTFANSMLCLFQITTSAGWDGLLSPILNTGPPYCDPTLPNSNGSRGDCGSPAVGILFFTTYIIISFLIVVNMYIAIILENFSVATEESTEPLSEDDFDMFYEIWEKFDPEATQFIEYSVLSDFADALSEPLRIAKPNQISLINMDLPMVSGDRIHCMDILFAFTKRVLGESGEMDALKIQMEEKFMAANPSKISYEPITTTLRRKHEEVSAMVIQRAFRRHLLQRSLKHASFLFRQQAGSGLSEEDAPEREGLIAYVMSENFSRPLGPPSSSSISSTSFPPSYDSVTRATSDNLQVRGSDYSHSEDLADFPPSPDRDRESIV

Structure (SMILES) | inhibition at 1 µM [1, 5] | inhibition at 1 µM [1, 6] | inhibition at 1 µM [2] | inhibition at 1 µM [3] | inhibition at 1 µM [4, 7] | inhibition at 1 µM [4, 8]
COc1cccnc1CN1CCOc2ccc(-c3ccc(OC(F)(F)F)cc3)cc2C1=O [II-143, 4-((3-methoxypyridin-2-yl)methyl)-7-(4-(trifluoromethoxy)phenyl)-3,4-dihydrobenzo[f][1,4]oxazepin-5(2H)-one] | 65% | 65% | 29% | 44% |  | 
Cc1ccnc(CN2CCOc3cnc(-c4ccc(OC(F)(F)F)cc4)cc3C2=O)n1 [XII-8, 4-((4-methylpyrimidin-2-yl)methyl)-7-(4-(trifluoromethoxy)phenyl)-3,4-dihydropyrido[4,3-f][1,4]oxazepin-5(2H)-one] | 36% | 36% | 11% | 11% |  | 
COc1cc(OC)nc(CN2CCOc3ccc(-c4ccc(OC(F)(F)F)cc4)cc3C2=O)n1 [II-42, 4-((4,6-dimethoxypyrimidin-2-yl)methyl)-7-(4-(trifluoromethoxy)phenyl)-3,4-dihydrobenzo[f][1,4]oxazepin-5(2H)-one] | 34% | 34% | 2% | 12% |  | 
CC1CC=C(c2ccc3c(c2)C(=O)N(Cc2ncccn2)CCO3)CC1 (centres unmarked) [Compound V-5, 7-(4-methylcyclohex-1-enyl)-4-(pyrimidin-2-ylmethyl)-3,4-dihydrobenzo[f][1,4]oxazepin-5(2H)-one] | 49% | 49% | -18% | 3% | 5% | 5%
CN1CCOc2ccc(-c3ccc(OC(F)(F)F)cc3)cc2C1=O [II-46, 4-methyl-7-(4-(trifluoromethoxy)phenyl)-3,4-dihydrobenzo[f][1,4]oxazepin-5(2H)-one] | 25% | 25% | 2% | 16% |  | 
CCc1ccc(-c2ccc3c(c2)C(=O)N(Cc2ncccn2)CCO3)cc1 [II-91, 7-(4-ethylphenyl)-4-(pyrimidin-2-ylmethyl)-3,4-dihydrobenzo[f][1,4]oxazepin-5(2H)-one] | 54% | 54% | -9% | -3% | 8% | 11%
O=C1c2cc(-c3ccc(OC(F)(F)F)cc3)ncc2OCCN1Cc1ccccc1 [XII-1, 4-benzyl-7-(4-(trifluoromethoxy)phenyl)-3,4-dihydropyrido[4,3-f][1,4]oxazepin-5(2H)-one] | 53% | 53% | -1% | -4% | 25% | 21%
O=C1c2cc(-c3ccc(OC(F)(F)F)cc3)ccc2OCCN1Cc1ccc2ccccc2n1 [II-7, 4-(quinolin-2-ylmethyl)-7-(4-(trifluoromethoxy)phenyl)-3,4-dihydrobenzo[f][1,4]oxazepin-5(2H)-one] | 34% | 34% | 0% | 13% |  | 
O=C1c2cc(-c3ccc(C(F)(F)F)s3)ccc2OCCN1Cc1ccccn1 [VI-31, 4-(pyridin-2-ylmethyl)-7-(5-(trifluoromethyl)thiophen-2-yl)-3,4-dihydrobenzo[f][1,4]oxazepin-5(2H)-one] |  | 61% |  |  | 50% | 42%
O=C1c2cc(-c3ccc(Cl)c(F)c3)ccc2OCCN1Cc1ccccn1 [II-158, 7-(4-chloro-3-fluorophenyl)-4-(pyridin-2-ylmethyl)-3,4-dihydrobenzo[f][1,4]oxazepin-5(2H)-one] |  | 58% |  |  | 34% | 26%
O=C1c2cc(-c3ccc(OC(F)(F)F)cc3)ccc2OCCN1CCc1ccccn1 [II-54, 4-(2-(pyridin-2-yl)ethyl)-7-(4-(trifluoromethoxy)phenyl)-3,4-dihydrobenzo[f][1,4]oxazepin-5(2H)-one] |  | 51% |  |  | 13% | 20%
O=C1c2cc(-c3ccc(OC(F)(F)F)cc3)ccc2OCCN1Cc1ccc(F)cc1 [II-62, 4-(4-fluorobenzyl)-7-(4-(trifluoromethoxy)phenyl)-3,4-dihydrobenzo[f][1,4]oxazepin-5(2H)-one] |  | 49% |  |  | 10% | 14%
O=C1c2cc(-c3ccc(OC(F)(F)F)cc3)c(F)cc2OCCN1Cc1ccccc1 [II-167, 4-benzyl-8-fluoro-7-(4-(trifluoromethoxy)phenyl)-3,4-dihydrobenzo[f][1,4]oxazepin-5(2H)-one] |  | 56% |  |  | 20% | 25%
O=C1c2cc(-c3ccc(OC(F)(F)F)cc3)ccc2OCCN1Cc1ccccc1Cl [II-47, 4-(2-chlorobenzyl)-7-(4-(trifluoromethoxy)phenyl)-3,4-dihydrobenzo[f][1,4]oxazepin-5(2H)-one] |  | 60% |  |  | 13% | 45%
